Results reported in PubChem BioAssay (NCI).
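96-well plates; 48 h exposure; 5 concentrations. Endpoints by linear interpolation between flanking doses. Not reached: highest tested concentration assigned. GI50 is the concentration that inhibits growth by half. TGI: total growth inhibition.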

What was measured:
Assay in all cases: DTP human tumour cell line panel, 48 h
[1] = system: DMS 114 small cell lung
[2] = system: DMS 273 small cell lung
[3] = system: IGROV1 ovarian
[4] = system: M19-MEL melanoma
[5] = system: UACC-62 melanoma
[6] = system: HOP-18 NSCLC
[7] = system: DU-145 prostate
[8] = system: MCF7 breast
[9] = system: MDA-MB-435
[10] = system: PC-3 prostate

Row | SMILES | TGI [1] [µM] | TGI [2] [µM] | TGI [3] [µM] | TGI [4] [µM] | TGI [5] [µM] | TGI [6] [µM] | GI50 [7] [nM] | TGI [7] [µM] | GI50 [3] [nM] | GI50 [8] [nM] | TGI [8] [µM] | GI50 [9] [nM] | GI50 [10] [nM] | TGI [10] [µM] | GI50 [5] [nM] | TGI [9] [µM]
1 | CCN(CC)CC(C(=O)Nc1c(C)cccc1C)/C(C)=N\NC(=O)C[N+](C)(C)C (stereo not given) | > 100 | > 100 | > 100 | > 100 | > 100 | – | – | – | – | – | – | – | – | – | – | –
2 | O=C(O)C(Cc1ccccc1)N1C(=O)N/C(=C\c2ccc(F)cc2)C1=O (stereo not given) | – | > 100 | > 100 | > 100 | > 100 | > 100 | – | – | – | – | – | – | – | – | – | –
3 | COc1ccc(/C=C\c2cc(OC)c3c(c2)OCO3)c(O)c1O | 8.81 | > 100 | 20.9 | 31.1 | 14 | 46.4 | – | – | – | – | – | – | – | – | – | –
4 | O=[S@@]1Nc2ccc(Br)cc2S1 | – | > 100 | > 100 | > 100 | > 100 | – | – | – | – | – | – | – | – | – | – | –
5 | CCOC(=O)COc1cccc2c1C(=O)CCO2 | > 100 | > 100 | > 100 | > 100 | > 100 | – | – | – | – | – | – | – | – | – | – | –
6 | CN(CC(=O)O)S(=O)(=O)c1ccc2ccccc2c1 | – | > 100 | > 100 | > 100 | > 100 | > 100 | – | – | – | – | – | – | – | – | – | –
7 | CCNC1C2(CCCCC2)NC(=O)C12CCCCC2 (stereo not given) | > 100 | > 100 | > 100 | > 100 | > 100 | – | – | – | – | – | – | – | – | – | – | –
8 | CC(=O)OC1COC(n2c(=S)n(-c3ccc(C)cc3)c(=O)c3ccccc32)C(OC(C)=O)C1OC(C)=O (stereo not given) | > 100 | > 100 | > 100 | > 100 | > 100 | > 100 | – | – | – | – | – | – | – | – | – | –
9 | N#CC(C#N)=c1ccc(=C2NCC3CCCN23)cc1 (stereo not given) | > 100 | > 100 | > 100 | > 100 | > 100 | > 100 | – | – | – | – | – | – | – | – | – | –
10 | O=C1NC2(CCCCC2)C2CCCCC(O)C12 (stereo not given) | > 100 | > 100 | > 100 | > 100 | > 100 | – | – | – | – | – | – | – | – | – | – | –
11 | CC(=O)NC1=C(NCC(C)(C)C)C(=O)c2ccccc2C1=O | – | > 100 | > 100 | 39.8 | > 100 | – | – | – | – | – | – | – | – | – | – | –
12 | CC1CN1P1(N2CC2C)=NP(N2CC2C)(N2CC2C)=NP(N2CC2C)(N2CC2C)=N1 (stereo not given) | – | > 50 | > 50 | > 50 | – | > 50 | – | – | – | – | – | – | – | – | – | –
13 | O=C(CSC(=S)N1CCCCC1)Nc1nc2c(s1)CCCC2 | > 100 | > 100 | > 100 | > 100 | – | – | – | – | – | – | – | – | – | – | – | –
14 | NC(CCc1nc(-c2ccc(Cl)cc2)cs1)C(=O)O (stereo not given) | – | > 100 | > 100 | > 100 | > 100 | > 100 | – | – | – | – | – | – | – | – | – | –
15 | CC(C)=CCCc1c(C)ccc2c1C(=O)C(=O)C(C(C)C)=C2 | 9.36 | 7.47 | > 22 | 7.87 | – | 8.12 | – | – | – | – | – | – | – | – | – | –
16 | CC1(C)OC(=O)C(=Cc2ccc(O)cc2)C(=O)O1 | > 100 | > 100 | > 100 | > 100 | > 100 | – | – | – | – | – | – | – | – | – | – | –
17 | COc1ccc(-c2cc(=O)c3ccc(O)cc3o2)c(OC)c1OC | > 100 | – | > 100 | > 100 | > 100 | – | – | – | – | – | – | – | – | – | – | –
18 | COc1cc2c(c(OC)c1O)C(=O)C(OC)C(c1ccc(O)c(O)c1)O2 (stereo not given) | – | – | > 100 | – | > 100 | – | 374 | > 100 | 553 | 391 | > 100 | 126 | 599 | > 50.6 | 345 | –
19 | C[C@@H](CS(C)(=O)=O)Nc1ncc2cc(Oc3ccc(F)cc3F)c(=O)n(C)c2n1 | – | – | > 25 | – | > 25 | – | > 25000 | > 25 | > 25000 | > 25000 | > 25 | > 25000 | > 25000 | > 25 | > 25000 | > 25
20 | COc1ccc(NC(=O)c2cc(OC)cc(OC)c2)cc1 | > 100 | > 100 | > 100 | – | > 100 | > 100 | – | – | – | – | – | – | – | – | – | –
21 | COc1ccc(-c2cc(-c3ccc(Nc4nc(Nc5ccccc5)nc(Nc5ccc(Cl)cc5)n4)cc3)nc(N)c2C#N)cc1 | – | – | 1.41 | – | 6.73 | – | 2410 | > 50 | 546 | 941 | > 50 | 962 | 1130 | 7.94 | 1470 | 2.16
22 | O=C(N/C(=C\c1cc(Cl)ccc1Cl)c1nc2[nH]c(=S)[nH]c(=O)c2[nH]1)c1ccccc1 | > 82.5 | – | > 70.6 | > 68.6 | > 92.9 | – | – | – | – | – | – | – | – | – | – | –
23 | COc1cc2cnc3c4cc(OC(C)C)c(OC)cc4ccc3c2cc1OC | > 100 | – | > 100 | > 100 | > 100 | > 100 | – | – | – | – | – | – | – | – | – | –
24 | COc1ccc2c(c1)C(=O)/C(=C/c1ccc(OCC(=O)Nc3nccs3)cc1)O2 | – | – | 0.036 | – | 23.2 | – | 504 | 5.73 | 16.9 | 5750 | 18 | 10700 | 264 | 2.17 | 9710 | 46.8
25 | O=C(O)CCSC(=O)Nc1cccc(F)c1 | > 100 | > 100 | – | – | – | – | – | – | – | – | – | – | – | – | – | –
26 | CCOC(=O)C1=C(C)CC2C(=O)OC(=O)C2C1(C)C (stereo not given) | > 100 | – | > 100 | > 100 | – | > 100 | – | – | – | – | – | – | – | – | – | –
